Where “and” joins values, the source holds several entries; their conditions need not be identical. Equal values may be shown once.
What was measured:
[1] = tested on: NCI-H1975 cells (EGFR L858R/T790 double mutant); test: H1975 inhibition assay (cell proliferation), Method A; type: cell-based; conditions: cellular proliferation, NCI-H1975 cells, 72 h, CellTiter-Glo (Table 1); read-out: NCI-H1975 IC50 (nM) DM
[2] = tested on: p-EGFR in PC9 cells (Exon 19 deletion EGFR); test: Exon19 deletion EGFR (activating single mutant) PC-9 cellular autophosphorylation assay; type: cell-based, human; conditions: 2 h treatment, ELISA
[3] = tested on: PC9 cells (EGFR d746-750 single mutant); test: PC-9 growth inhibition assay (cell proliferation), Method A; type: cell-based, human; conditions: cellular proliferation, PC9 cells, 72 h, CellTiter-Glo (Table 1); read-out: PC9 IC50 (nM) SM
[4] = molecular target: T1, Wt EGFR (Homo sapiens, UniProt P00533); test: Enzyme assay, IC50 for wt EGFR (Caliper); type: biochemical; conditions: enzyme phosphorylation assay; read-out: EGFR_WT IC50
T1 construct: isolated from A431 human epidermoid carcinoma cells which overexpress EGF receptor; endogenous in cells; host or cells: A431 human epidermoid carcinoma cells (receptor purified on wheat germ agglutinin sepharose)

[5] = molecular target: EGFR_T790M/L858R (Homo sapiens, UniProt P00533, L858R/T790M); test: Enzyme assay, IC50 for double-mutant EGFR (EGFR_T790M/L858R) (Caliper); type: biochemical; conditions: enzyme phosphorylation assay; read-out: EGFR_L858R/T790 IC50
[6] = tested on: p-EGFR in H1975 cells (L858R/T790M double mutant EGFR); conditions: read-out: H1975 IC50; cellular EGFR autophosphorylation, 2 h treatment, ELISA

T1 sequence (P00533 25-1210): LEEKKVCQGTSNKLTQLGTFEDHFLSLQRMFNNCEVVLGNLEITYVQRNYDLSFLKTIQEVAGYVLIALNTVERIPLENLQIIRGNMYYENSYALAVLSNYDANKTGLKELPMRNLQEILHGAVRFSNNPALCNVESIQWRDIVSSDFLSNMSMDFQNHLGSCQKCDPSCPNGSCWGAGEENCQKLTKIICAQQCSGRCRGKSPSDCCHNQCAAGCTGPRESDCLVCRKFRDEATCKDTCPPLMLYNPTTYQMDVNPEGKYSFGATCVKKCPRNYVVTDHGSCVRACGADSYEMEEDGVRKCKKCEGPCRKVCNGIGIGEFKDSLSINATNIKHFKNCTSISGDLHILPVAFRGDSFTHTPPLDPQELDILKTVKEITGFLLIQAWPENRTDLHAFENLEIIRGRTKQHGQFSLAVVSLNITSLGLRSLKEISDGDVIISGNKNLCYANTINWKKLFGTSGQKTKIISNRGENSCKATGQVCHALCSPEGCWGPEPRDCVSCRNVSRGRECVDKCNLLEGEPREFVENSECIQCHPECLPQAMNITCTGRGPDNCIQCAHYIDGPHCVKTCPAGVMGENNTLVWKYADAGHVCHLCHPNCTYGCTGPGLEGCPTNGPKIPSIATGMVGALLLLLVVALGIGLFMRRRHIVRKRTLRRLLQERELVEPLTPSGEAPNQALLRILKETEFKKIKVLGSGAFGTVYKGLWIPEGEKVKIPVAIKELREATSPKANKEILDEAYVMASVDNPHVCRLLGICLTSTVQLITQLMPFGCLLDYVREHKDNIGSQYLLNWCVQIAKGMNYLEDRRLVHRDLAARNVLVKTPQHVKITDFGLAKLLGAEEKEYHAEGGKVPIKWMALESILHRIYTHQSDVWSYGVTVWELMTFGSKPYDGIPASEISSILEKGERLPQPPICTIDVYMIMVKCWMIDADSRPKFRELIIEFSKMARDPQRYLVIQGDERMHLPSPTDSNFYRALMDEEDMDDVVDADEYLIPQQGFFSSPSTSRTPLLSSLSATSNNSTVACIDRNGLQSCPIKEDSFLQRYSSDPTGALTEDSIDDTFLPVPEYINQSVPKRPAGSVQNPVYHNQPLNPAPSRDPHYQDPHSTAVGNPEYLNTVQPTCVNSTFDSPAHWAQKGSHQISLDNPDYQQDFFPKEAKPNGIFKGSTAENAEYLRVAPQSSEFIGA
EGFR_T790M/L858R, sequence (P00533 25-1210 T790M/L858R): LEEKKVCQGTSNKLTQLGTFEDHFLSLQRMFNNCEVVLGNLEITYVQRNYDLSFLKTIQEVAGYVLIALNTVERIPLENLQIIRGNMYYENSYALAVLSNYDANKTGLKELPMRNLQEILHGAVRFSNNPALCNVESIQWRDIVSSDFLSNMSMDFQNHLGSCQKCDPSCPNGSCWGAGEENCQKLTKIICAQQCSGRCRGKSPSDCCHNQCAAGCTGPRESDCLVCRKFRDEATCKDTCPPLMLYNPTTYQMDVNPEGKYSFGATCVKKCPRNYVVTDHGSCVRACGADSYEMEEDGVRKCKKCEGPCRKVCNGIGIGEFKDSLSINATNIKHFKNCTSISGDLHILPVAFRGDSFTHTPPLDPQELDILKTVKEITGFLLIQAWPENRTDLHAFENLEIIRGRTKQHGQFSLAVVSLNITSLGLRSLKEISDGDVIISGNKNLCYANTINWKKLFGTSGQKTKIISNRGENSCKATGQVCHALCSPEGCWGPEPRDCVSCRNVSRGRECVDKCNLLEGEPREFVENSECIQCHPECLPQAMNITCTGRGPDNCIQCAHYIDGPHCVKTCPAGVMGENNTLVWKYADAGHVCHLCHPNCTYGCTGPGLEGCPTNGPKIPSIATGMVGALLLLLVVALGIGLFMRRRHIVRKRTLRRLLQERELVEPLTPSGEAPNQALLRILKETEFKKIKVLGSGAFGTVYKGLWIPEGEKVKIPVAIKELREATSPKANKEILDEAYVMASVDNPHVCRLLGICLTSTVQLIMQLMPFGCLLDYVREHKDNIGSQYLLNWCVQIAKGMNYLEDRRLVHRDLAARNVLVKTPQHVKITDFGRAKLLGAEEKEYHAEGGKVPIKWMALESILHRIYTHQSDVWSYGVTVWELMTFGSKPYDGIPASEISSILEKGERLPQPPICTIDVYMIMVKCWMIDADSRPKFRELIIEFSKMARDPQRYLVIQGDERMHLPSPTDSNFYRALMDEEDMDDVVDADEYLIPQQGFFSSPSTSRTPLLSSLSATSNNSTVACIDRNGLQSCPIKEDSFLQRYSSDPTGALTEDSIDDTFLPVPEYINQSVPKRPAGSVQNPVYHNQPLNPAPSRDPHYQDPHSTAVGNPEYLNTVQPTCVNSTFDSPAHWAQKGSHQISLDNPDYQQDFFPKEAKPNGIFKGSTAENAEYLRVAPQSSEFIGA

IC50 [1]: 2.2 nM
IC50 [2]: 2.91 nM and 2.4 nM
IC50 [3]: 3.4 nM
IC50 [4]: 1.6 nM
IC50 [5]: 1.5 nM
IC50 [6]: 1.84 nM and 3.58 nM
Structure (SMILES): C=CC(=O)Nc1cc(Nc2nccc(-c3c[nH]c4ccccc34)n2)c(OC)cc1N(C)CCN(C)C [AZD-5104]

— patent publication US10435388B2, “Selective inhibitors of clinically important mutants of the EGFR tyrosine kinase” (CS PHARMATECH LIMITED, priority 2016, dated 2019)
